Laboratory results from ChEMBL document CHEMBL6177985, “Discovery of Novel Cyclic Peptides as SMAD2-SMAD4 Interaction Inhibitors for the Treatment of Hepatic Fibrosis” (J Med Chem, 2025).
Blank lines part the entries; values can stand above or below the compound they belong to. The source made the active and inactive calls. No cut-off for these calls is given here.

Tests used:
LX-2 [1] = assay: Downregulation of TGF-beta induced P65 phosphorylation level in human LX-2 cells at 100 uM by Immunoblot analysis; assay type: functional, cell-based
LX-2 [2] = assay: Downregulation of TGF-beta induced alpha-SMA level in human LX-2 cells at 100 uM by Immunoblot analysis; assay type: functional, cell-based
Homo sapiens = species: Homo sapiens; assay: Inhibition of TGF-beta induced his tagged human SMAD2/human SMAD4 interaction at 100 uM incubated for 1 hr followed by anti-His-HRP addition and measured after 1 hr by blocking assay relative to control; settings: time 2.0 hrs
LX-2 [3] = assay: Downregulation of TGF-beta induced COL1A1 level in human LX-2 cells at 100 uM by Immunoblot analysis; assay type: functional, cell-based
LX-2 [4] = assay: Antifibrotic activity against TGF-beta1 stimulated human LX-2 cells assessed as reduction in alpha-SMA expression at 100 uM incubated for 24 hrs by Western blotting analysis; assay type: functional, cell-based
LX-2 [5] = assay: Antifibrotic activity against TGF-beta1 stimulated human LX-2 cells assessed as reduction in COL1A1 expression at 100 uM incubated for 24 hrs by Western blotting analysis; assay type: functional, cell-based
LX-2 [6] = assay: Downregulation of TGF-beta induced SMAD2 phosphorylation level in human LX-2 cells at 100 uM by Immunoblot analysis; assay type: functional, cell-based
[7] = Stability in rat serum measured up to 48 hrs by LC-MS/MS analysis; assay type: ADME, cell-free
LX-2 [8] = assay: Inhibition of SMAD2 phosphorylation level in TGF-beta and TMSO induced human LX-2 cells at 300 uM by immunoblot analysis; assay type: functional, cell-based
Mus musculus [9] = species: Mus musculus; assay: Effect on gene expression in CCl4-induced male C57BL/6J mouse assessed as change in genes associated with biological process in liver tissue by RT-PCR analysis; assay type: functional, organism-based
Mus musculus [10] = species: Mus musculus; assay: Effect on gene expression in CCl4-induced male C57BL/6J mouse assessed as upregulation of genes associated with collagen deposition in liver tissue by RT-PCR analysis; assay type: functional, organism-based
LX-2 [11] = assay: Inhibition of HSC activation in TGFbeta-induced human LX-2 cells assessed as reduction in COL1A1 by Western blot analysis; assay type: functional, cell-based; settings: dose 25-100 µM
LX-2 [12] = assay: Inhibition of HSC activation in TGFbeta-induced human LX-2 cells assessed as reduction in alpha-SMA at 100 uM by Western blot analysis; assay type: functional, cell-based
Mus musculus [13] = assay: Anti-fibrotic activity against CCl4-induced liver fibrosis male C57BL/6J mouse model assessed as reduction in alpha-SMA expression in liver at 400 microg/kg, ip measured for 3 weeks by Western blot analysis; assay type: functional, organism-based; settings: dose 400.0 µg/kg
Mus musculus [14] = species: Mus musculus; assay: Effect on gene expression in CCl4-induced male C57BL/6J mouse assessed as change in genes associated with cellular component in liver tissue by RT-PCR analysis; assay type: functional, organism-based
LX-2 [15] = assay: Inhibition of TGF-beta induced SMAD1/5/8 phosphorylation level in human LX-2 cells at 100 uM by Western blot analysis; assay type: functional, cell-based
LX-2 [16] = assay: Inhibition of TGF-beta induced SMAD2 phosphorylation level in human LX-2 cells by Western blot analysis; assay type: functional, cell-based; settings: dose 25-100 µM
Mus musculus [17] = assay: Anti-fibrotic activity against CCl4-induced liver fibrosis male C57BL/6J mouse model assessed as effect on SMAD1/5/8 phosphorylation in liver at 400 microg/kg, ip measured for 3 weeks by Western blot analysis; assay type: functional, organism-based; settings: dose 400.0 µg/kg
Mus musculus [18] = assay: Anti-fibrotic activity against CCl4-induced liver fibrosis male C57BL/6J mouse model assessed as effect on SMAD3 phosphorylation in liver at 400 microg/kg, ip measured for 3 weeks by Western blot analysis; assay type: functional, organism-based; settings: dose 400.0 µg/kg
LX-2 [19] = assay: Inhibition of TGF-beta induced SMAD3 phosphorylation level in human LX-2 cells at 100 uM by Western blot analysis; assay type: functional, cell-based
Mus musculus [20] = assay: Anti-fibrotic activity against CCl4-induced liver fibrosis male C57BL/6J mouse model assessed as reduction in COL1A1 expression in liver at 400 microg/kg, ip measured for 3 weeks by Western blot analysis; assay type: functional, organism-based; settings: dose 400.0 µg/kg
LX-2 [21] = assay: Inhibition of HSC activation in TGFbeta-induced human LX-2 cells assessed as reduction in COL1A1 at 100 uM by Western blot analysis; assay type: functional, cell-based
Mus musculus [22] = assay: Anti-fibrotic activity against CCl4-induced liver fibrosis male C57BL/6J mouse model assessed as reduction of AST level at 400 microg/kg, ip measured for 3 weeks by biochemical analysis; assay type: functional, organism-based; settings: dose 400.0 µg/kg
LX-2 [23] = assay: Inhibition of HSC activation in TGFbeta-induced human LX-2 cells assessed as reduction in alpha-SMA by Western blot analysis; assay type: functional, cell-based; settings: dose 25-100 µM
Mus musculus [24] = assay: Anti-fibrotic activity against CCl4-induced liver fibrosis male C57BL/6J mouse model assessed as alleviation of COL1A1 level at 400 microg/kg, ip measured for 3 weeks by immunohistochemical staining based analysis; assay type: functional, organism-based; settings: dose 400.0 µg/kg
Mus musculus [25] = species: Mus musculus; assay: Effect on gene expression in CCl4-induced male C57BL/6J mouse assessed as change in genes associated with molecular function in liver tissue by RT-PCR analysis; assay type: functional, organism-based
Mus musculus [26] = species: Mus musculus; assay: Effect on gene expression in CCl4-induced male C57BL/6J mouse assessed as upregulation of genes associated with inflammatory response in liver tissue by RT-PCR analysis; assay type: functional, organism-based
Mus musculus [27] = assay: Anti-fibrotic activity against CCl4-induced liver fibrosis male C57BL/6J mouse model assessed as alleviation of alpha SMA level at 400 microg/kg, ip measured for 3 weeks by immunohistochemical staining based analysis; assay type: functional, organism-based; settings: dose 400.0 µg/kg
Mus musculus [28] = assay: Anti-fibrotic activity against CCl4-induced liver fibrosis male C57BL/6J mouse model assessed as decrease in collagen deposition at 400 microg/kg, ip measured for 3 weeks; assay type: functional, organism-based; settings: dose 400.0 µg/kg
Mus musculus [29] = assay: Anti-fibrotic activity against CCl4-induced liver fibrosis male C57BL/6J mouse model assessed as decrease in inflammatory infiltration at 400 microg/kg, ip measured for 3 weeks; assay type: functional, organism-based; settings: dose 400.0 µg/kg
Mus musculus [30] = assay: Anti-fibrotic activity against CCl4-induced liver fibrosis male C57BL/6J mouse model assessed as reduction in SMAD2 level in liver at 400 microg/kg, ip measured for 3 weeks by Western blot analysis; assay type: functional, organism-based; settings: dose 400.0 µg/kg
LX-2 [31] = assay: Inhibition of TGF-beta induced SMAD2 phosphorylation level in human LX-2 cells at 100 uM by Western blot analysis; assay type: functional, cell-based
Mus musculus [32] = assay: Anti-fibrotic activity against CCl4-induced liver fibrosis male C57BL/6J mouse model assessed as reduction in P65 phosphorylation level in liver at 400 microg/kg, ip measured for 3 weeks by Western blot analysis; assay type: functional, organism-based; settings: dose 400.0 µg/kg
Mus musculus [33] = assay: Anti-fibrotic activity against CCl4-induced liver fibrosis male C57BL/6J mouse model assessed as reduction of ALT level at 400 microg/kg, ip measured for 3 weeks by biochemical analysis; assay type: functional, organism-based; settings: dose 400.0 µg/kg

inhibition (Homo sapiens): 52.5%
Compound: C[C@H](NC(=O)[C@@H]1CCCN1C(=O)[C@H](CCCNC(=N)N)NC(=O)[C@@H](N)[C@@H](C)O)C(=O)N[C@@H](CO)C(=O)N[C@@H](Cc1ccccc1)C(=O)N[C@@H](Cc1c[nH]c2ccccc12)C(=O)N[C@@H](CCC(=O)O)C(=O)N[C@H](C(=O)N[C@@H](CO)C(=O)O)[C@@H](C)O
inhibition (LX-2 [15]): inactive | Activity (Mus musculus [17]): inactive | Activity (Mus musculus [18]): inactive | inhibition (LX-2 [19]): inactive | Activity (LX-2 [4]): Active | Activity (LX-2 [5]): Active

inhibition (Homo sapiens): 16.3%
Compound: H-TRAASFWETS-OH
Activity (LX-2 [4]): inactive | Activity (LX-2 [5]): inactive

The remaining lines, values behind:

Compound: C[C@H](NC(=O)[C@@H]1CCCN1C(=O)[C@H](CCCNC(=N)N)NC(=O)[C@@H](N)[C@@H](C)O)C(=O)N[C@@H](CO)C(=O)N[C@H](Cc1ccccc1)C(=O)N[C@@H](Cc1c[nH]c2ccccc12)C(=O)N[C@@H](CCC(=O)O)C(=O)N[C@H](C(=O)N[C@@H](CO)C(=O)O)[C@@H](C)O
Activity (LX-2 [1]): Active | Activity (LX-2 [2]): Active | inhibition (Homo sapiens): 71.3% | Activity (LX-2 [3]): Active | Activity (LX-2 [4]): Active | Activity (LX-2 [5]): Active | Activity (LX-2 [6]): Active | Stability [7]: Stable

Compound: C[C@@H]1NC(=O)[C@@H]2CCCN2C(=O)[C@H](CCCNC(=N)N)NC(=O)[C@H]([C@@H](C)O)NC(=O)[C@H](CO)NC(=O)[C@H]([C@@H](C)O)NC(=O)[C@H](CCC(=O)O)NC(=O)[C@H](Cc2c[nH]c3ccccc23)NC(=O)[C@@H](Cc2ccccc2)NC(=O)[C@H](CO)NC1=O
Activity (LX-2 [1]): Active | Activity (LX-2 [2]): Active | inhibition (LX-2 [8]): inactive | Activity (Mus musculus [9]): Active | Activity (Mus musculus [10]): Active | inhibition (LX-2 [11]): Dose-dependent-effect | inhibition (LX-2 [12]): Active | Activity (Mus musculus [13]): Active; Compound Showed Superior Effect Than M10 | Activity (Mus musculus [14]): Active | inhibition (LX-2 [15]): inactive | inhibition (Homo sapiens): 85.6% | inhibition (LX-2 [16]): Dose-dependent-effect | Activity (Mus musculus [17]): inactive | Activity (Mus musculus [18]): inactive | inhibition (LX-2 [19]): inactive | Activity (Mus musculus [20]): Active; Compound Showed Superior Effect Than M10 | inhibition (LX-2 [21]): Active | Activity (Mus musculus [22]): Active | Activity (LX-2 [3]): Active | Activity (LX-2 [4]): Active | Activity (LX-2 [5]): Active | Activity (LX-2 [6]): Active | inhibition (LX-2 [23]): Dose-dependent-effect | Activity (Mus musculus [24]): Active | Activity (Mus musculus [25]): Active | Stability [7]: Stable | Activity (Mus musculus [26]): Active | Activity (Mus musculus [27]): Active | Activity (Mus musculus [28]): Active; Compound Showed Higher Efficacy Than M10 | Activity (Mus musculus [29]): Active; Compound Showed Higher Efficacy Than M10 | Activity (Mus musculus [30]): Active; Compound Showed Superior Effect Than M10 | inhibition (LX-2 [31]): Active | Activity (Mus musculus [32]): Active; Compound Showed Superior Effect Than M10 | Activity (Mus musculus [33]): Active

Compound: H-TRPASKWETS-OH
inhibition (Homo sapiens): 35.2% | Activity (LX-2 [4]): inactive | Activity (LX-2 [5]): inactive

Compound: H-TRPASFWEAS-OH
inhibition (Homo sapiens): 9.3% | Activity (LX-2 [4]): inactive | Activity (LX-2 [5]): inactive
